The results in this text go back to ChEMBL document CHEMBL1138721, “Development of an efficient and selective radioligand for bradykinin B1 receptor occupancy studies” (Bioorg Med Chem Lett, 2004).

As a reminder, the Ki is the dissociation constant of the complex between target and ligand, obtained from inhibition or displacement. High values mean lower affinity, low ones higher affinity. A word on the logP: it is the decadic logarithm of the partition coefficient of the neutral form, usually between octanol and water. For orientation: half-life means how long it takes for the measured level to halve. Read a low half-life as rapid decline. One may read the Kd as the equilibrium constant for the complex coming apart. Low readings indicate tighter binding, high ones weaker binding. Broadly, the IC50 is the concentration needed to halve the response being measured. A low value points to greater potency.

The species entered for data set [1] is Homo sapiens. As to the kind of experiment: Binding affinity to human plasma protein. The class given is cell-free.
Data set [2] addresses T1, B1 bradykinin receptor (Homo sapiens, UniProt P46663).
T1 sequence (P46663 whole entry): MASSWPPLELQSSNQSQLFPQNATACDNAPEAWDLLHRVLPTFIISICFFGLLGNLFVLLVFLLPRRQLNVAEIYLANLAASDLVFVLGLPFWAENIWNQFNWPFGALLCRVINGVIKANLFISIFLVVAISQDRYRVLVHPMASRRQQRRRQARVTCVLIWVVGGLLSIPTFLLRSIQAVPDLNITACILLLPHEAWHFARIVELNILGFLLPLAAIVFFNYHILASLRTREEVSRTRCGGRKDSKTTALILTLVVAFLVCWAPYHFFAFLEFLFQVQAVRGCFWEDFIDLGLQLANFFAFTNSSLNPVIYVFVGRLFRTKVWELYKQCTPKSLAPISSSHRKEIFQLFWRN
As to the kind of experiment: Binding affinity to human Bradykinin receptor B1 over-expressed in transgenic rats was determined by ex vivo receptor occupancy assay.

The target of data set [3] is T2, B2 bradykinin receptor (Homo sapiens, UniProt P30411).
T2 sequence (P30411 whole entry): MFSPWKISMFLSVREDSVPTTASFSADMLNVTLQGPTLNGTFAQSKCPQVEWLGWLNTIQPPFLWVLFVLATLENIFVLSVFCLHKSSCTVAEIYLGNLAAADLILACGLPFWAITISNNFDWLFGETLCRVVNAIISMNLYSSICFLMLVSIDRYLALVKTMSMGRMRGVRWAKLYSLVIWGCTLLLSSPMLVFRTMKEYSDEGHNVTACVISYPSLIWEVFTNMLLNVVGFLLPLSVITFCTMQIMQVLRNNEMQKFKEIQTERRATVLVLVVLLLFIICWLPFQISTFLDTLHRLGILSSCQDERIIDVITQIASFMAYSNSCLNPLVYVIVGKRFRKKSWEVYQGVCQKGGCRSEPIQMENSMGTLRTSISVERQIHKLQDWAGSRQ
Nature of the data set: Binding affinity to human Bradykinin receptor B2 over-expressed in transgenic rats was determined by ex vivo receptor occupancy assay.

A short description of data set [4]: Partition coefficient (logP). Format: physicochemical. Conditions: octanol/water.
Data set [5] deals with T3, B1 bradykinin receptor (Canis lupus familiaris, UniProt Q9BDQ5).
T3 sequence (Q9BDQ5 whole entry): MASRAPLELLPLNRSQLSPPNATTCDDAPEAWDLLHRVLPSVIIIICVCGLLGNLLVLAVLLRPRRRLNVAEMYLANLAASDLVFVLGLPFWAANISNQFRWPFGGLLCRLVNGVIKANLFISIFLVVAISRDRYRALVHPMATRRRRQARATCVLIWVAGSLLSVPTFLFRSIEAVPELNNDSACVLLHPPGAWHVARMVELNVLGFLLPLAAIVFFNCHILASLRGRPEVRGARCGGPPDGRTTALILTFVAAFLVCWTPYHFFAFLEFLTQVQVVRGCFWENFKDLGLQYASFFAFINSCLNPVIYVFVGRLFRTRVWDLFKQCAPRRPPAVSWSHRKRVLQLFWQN
As to the kind of experiment: Binding affinity of the [35S]- radiolabeled compound to dog Bradykinin receptor B1.

Data set [6] concerns the target T2, B2 bradykinin receptor. As to the kind of experiment: Binding affinity of the [35S]- radiolabeled compound to human Bradykinin receptor B2 over-expressed in transgenic rats was determined by ex vivo receptor occupancy assay.
The target in data set [7] is T4, B1 bradykinin receptor (Homo sapiens) (UniProt P46663).
T4 sequence (whole entry): T1 sequence (P46663 whole entry)
Nature of the data set: Maximum specific binding of the [35S]- radiolabeled compound to human Bradykinin receptor B1 expressed in CHO membranes was determined. Format: cell membranes.

Data set [8] is described as follows: Half-life of the [35S]- radiolabeled compound. Format: ADME.
Data set [9] has as its target T1, B1 bradykinin receptor. Nature of the data set: Equilibrium dissociation constant of the [35S]- radiolabeled compound against human Bradykinin receptor B1 expressed in CHO membranes was determined. Format: cell membranes.
The target of data set [10] is T1, B1 bradykinin receptor. Nature of the data set: Antagonist activity against human Bradykinin receptor B1 was determined in a fluorescence imaging plate reader assay. Format: functional.
The species named for data set [11] is Homo sapiens. Nature of the data set: Binding affinity of the [35S]- radiolabeled compound to human plasma protein. The class given is cell-free.
Data set [12] has as its target T5, B1 bradykinin receptor (Rattus norvegicus, UniProt P97583).
T5 sequence (P97583 whole entry): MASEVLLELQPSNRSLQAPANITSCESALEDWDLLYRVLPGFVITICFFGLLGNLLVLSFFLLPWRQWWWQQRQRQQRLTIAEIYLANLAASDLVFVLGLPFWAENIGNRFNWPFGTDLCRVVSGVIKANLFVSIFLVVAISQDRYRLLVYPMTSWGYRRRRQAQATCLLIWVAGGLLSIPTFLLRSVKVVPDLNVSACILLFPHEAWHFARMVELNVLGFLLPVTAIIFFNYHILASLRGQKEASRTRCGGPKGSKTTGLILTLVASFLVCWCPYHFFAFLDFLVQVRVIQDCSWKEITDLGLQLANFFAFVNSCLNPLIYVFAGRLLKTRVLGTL
Nature of the data set: Binding affinity of the [35S]- radiolabeled compound to rat Bradykinin receptor B1.

Data set [13] addresses T1, B1 bradykinin receptor. Nature of the data set: Binding affinity of the [35S]- radiolabeled compound to human Bradykinin receptor B1 over-expressed in transgenic rats was determined by ex vivo receptor occupancy assay.
Data set [14] addresses T6, B1 bradykinin receptor (Oryctolagus cuniculus, UniProt P48748).
T6 sequence (P48748 whole entry): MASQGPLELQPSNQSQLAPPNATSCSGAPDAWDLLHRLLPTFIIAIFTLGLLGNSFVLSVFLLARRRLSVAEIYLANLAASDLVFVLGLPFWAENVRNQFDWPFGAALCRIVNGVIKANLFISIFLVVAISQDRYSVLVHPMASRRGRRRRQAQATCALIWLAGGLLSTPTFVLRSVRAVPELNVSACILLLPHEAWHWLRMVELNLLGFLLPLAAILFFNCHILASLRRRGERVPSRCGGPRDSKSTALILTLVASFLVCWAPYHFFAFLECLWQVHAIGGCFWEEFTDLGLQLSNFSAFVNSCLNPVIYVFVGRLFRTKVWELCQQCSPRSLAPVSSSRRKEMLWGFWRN
Nature of the data set: Binding affinity of the [35S]- radiolabeled compound to rabbit Bradykinin receptor B1.

For data set [15], the target named is T1, B1 bradykinin receptor. Nature of the data set: Binding affinity (radioligand) to human Bradykinin receptor B1 over-expressed in transgenic rats was determined by ex vivo receptor occupancy assay; value ranges from 0.1-0.2 nM.

Some results are limits rather than exact numbers.

Turning to `O=C(C[C@@H]1C(=O)Nc2ccccc2N1S(=O)(=O)c1ccc(Cl)c(Cl)c1)NCCc1ccc(-n2cnnc2)cc1`, in the data set listed under Homo sapiens [1], the PPB came to 82.5%. For the same molecule, the values for the inhibition constant Ki at B1 bradykinin receptor [2] and at B2 bradykinin receptor [3] were 3.73 nM and over 10000 nM, respectively. For the same molecule, the log partition coefficient (logP) in data set [4] came to 2.35.

As for `CN1CCN=C1c1ccc(CCNC(=O)C[C@@H]2C(=O)Nc3ccc(Cl)cc3N2S(=O)(=O)c2ccc3ccccc3c2)cc1`, in the data set listed under Homo sapiens [1], the PPB is 91.7%. Also, the Ki at B1 bradykinin receptor [2] is 0.02 nM; on B2 bradykinin receptor [3] it was over 10000 nM. In addition, in data set [4], the logP was 0.53.

Turning to `O=C(C[C@@H]1C(=O)Nc2ccccc2N1S(=O)(=O)c1ccc(Cl)c(Cl)c1)NCCc1ccc(-n2ccnc2)cc1`, the figures for the inhibitory constant (Ki) at B1 bradykinin receptor [2] and at B2 bradykinin receptor [3] were 1.09 nM and over 10000 nM, respectively. The same molecule registered a logP in data set [4] of 3.35.

As for `O=C(C[C@@H]1C(=O)Nc2ccccc2N1S(=O)(=O)c1ccc2ccccc2c1)NCCc1ccc(C2=NCCN2)cc1`, the Ki is 0.5 nM at B1 bradykinin receptor [5]; over 10000 nM on B2 bradykinin receptor [6]; 34 nM on B1 bradykinin receptor [12]; 0.02 nM at B1 bradykinin receptor [13]; 0.05 nM at B1 bradykinin receptor [14]. The molecule also yielded a Bmax (fM mg-1 protein) in data set [7] of 480. In [8], this molecule displayed a half-life of about 3.33 h. This molecule also showed a Kd at B1 bradykinin receptor [9] of 0.015 nM. This molecule registered an IC50 against B1 bradykinin receptor [10] of 0.04 nM. This molecule also returned a PPB in the data set filed under Homo sapiens [11] of 79.4%. In data set [4], this molecule returned a logP of 0.25.

With `[3H][C@@]1(C(=O)NCC(=O)N[C@@H](Cc2ccccc2)C(=O)N[C@@H](CO)C(=O)N2CCC[C@H]2C(=O)N[C@@H](CC(C)C)C(=O)O)CCCN1C(=O)[C@]1([3H])CCCN1C(=O)[C@H](CCCN=C(N)N)NC(=O)[C@@H](N)CCCCN`, the Ki on B1 bradykinin receptor [15] is under 0.2 nM.

As to `O=C(C[C@@H]1C(=O)Nc2ccc(Cl)cc2N1S(=O)(=O)c1ccc2ccccc2c1)NCCc1ccc(-c2ncc[nH]2)cc1`, the results for the Ki at B1 bradykinin receptor [2] and at B2 bradykinin receptor [3] were 0.07 nM and over 10000 nM, respectively. In [4], this molecule yielded a logP of 3.41.

Consider `O=C(C[C@@H]1C(=O)Nc2ccc(Cl)cc2N1S(=O)(=O)c1ccc2ccccc2c1)NCCc1ccc(C2=NCCN2)cc1`, for which, in the data set listed under Homo sapiens [1], the PPB came out at 93.6%. In addition, the inhibition constant Ki at B1 bradykinin receptor [2] is 0.01 nM; at B2 bradykinin receptor [3], over 10000 nM. This molecule also registered a logP in data set [4] of 1.

The molecule `O=C(C[C@@H]1C(=O)Nc2ccccc2N1S(=O)(=O)c1ccc(Cl)c(Cl)c1)NCCc1ccc(C2=NCCN2)cc1` returned a PPB in the data set filed under Homo sapiens [1] of 36%. Also, the inhibitory constant (Ki) at B1 bradykinin receptor [2] was 0.03 nM; at B2 bradykinin receptor [3], over 10000 nM. The logP in [4] stood at 0.48.

With `O=C(C[C@@H]1C(=O)Nc2ccccc2N1S(=O)(=O)c1ccc2ccccc2c1)NCCc1ccc(-c2ncc[nH]2)cc1`, the PPB in the data set filed under Homo sapiens [1] came to 98.5%. Further, the Ki on B1 bradykinin receptor [2] was 0.07 nM; at B2 bradykinin receptor [3], over 10000 nM. In addition, in data set [4], the logP is 3.32.
